From US9017643B2, “Particles comprising a releasable dopant therein” (Australian Nuclear Science and Technology Organisation, priority 2005, dated 2015)

Tests used:
[1] = Release into 50/50 v/v ethanol/water; assay type: physicochemical; details: phenylsiloxane particles
Experimental: Release of retinol from the particles into 50:50 (v/v) ethanol:water solution was measured over a period of 11 days. Due to decomposition of retinol released into the solution, the supernatant was refreshed at each time point, and the release measured using UV/Vis spectroscopy (peak at 325 nm). Approximately 11% of the encapsulated retinol was released after one day, followed by slower release thereafter.
(§1) The sample was suspended in 50/50 v/v ethanol/water (10 mL) with stirring. At each time point, the sample was centrifuged (10,000 rpm, 10 minutes) and the supernatant removed. Fresh solvent was then added and the solid resuspended. In comparison, the release of dye from a similar sample into 100% ethanol solution is very rapid, with about 40% of the dye released after several minutes.
(§2) The sample was suspended in 50/50 v/v ethanol/water (10 mL) with stirring. At each time point, the sample was centrifuged (10,000 rpm, 10 minutes) and the supernatant removed. Fresh solvent was then added and the solid resuspended. In contrast to the slow release into ethanol/water, the release into ethanol is very rapid, with approximately 70% of the encapsulated dye released within one hour.

Release into ethanol = assay type: physicochemical; details: for Encapsulated dye released: ethanol
Experimental: as §1, §2
The samples (53.5 and 49.2 mg respectively) were suspended in ethanol (100 mL) with stirring. At each time point, 1.5 mL was extracted from both samples and centrifuged to isolate the solid, which was then returned to the solution with 1 mL of fresh ethanol. The extracted 1.5 mL was analysed by UV/Vis (absorbance at 536 nm), to determine the concentration of sudan red dye released into the supernatant. The second sample released dye more quickly than the first, but by 100 minutes, both samples had released >90% of the encapsulated sudan red dye.

[2] = Integrity of retinol after encapsulation (UV/Visible spectra, leaching into ethanol); assay type: physicochemical
From the text: The UV/Visible spectra of the both retinol-doped and undoped phenylsiloxane particles dispersed in PTFE powder (10 wt %), were collected using a diffuse reflectance accessory. […] The bandshift from 325 nm in ethanol solution to 335 nm in the solid is due to difference of environment experienced by the retinol molecule. […] This is likely to be due to exposure to low pH (=1.0) during the hydrolysis of TMOS.

[3] = Release into sodium hydroxide solution at pH=12; assay type: physicochemical; details: Example 3, after 27 days, both samples (phenylsiloxane and vinylsiloxane)
Experimental: The rate of release of diuron into sodium hydroxide solution at pH=12 was measured over a period of one month. Analysing the extent of release is somewhat problematic due to the low solubility of diuron in water. In order to determine the release characteristics, diuron-doped particles (about […]) were suspended in NaOH solution (0.01 mol dm^−3, 50 mL) and stirred. At one-week intervals, the solution was centrifuged and the supernatant removed. The diuron-doped particles were then resuspended in a fresh solution of NaOH (0.01 mol dm^−3, 50 mL) and stirred. The removed supernatant was shaken with octanol (10 mL) in a separating flask to extract dissolved diuron. This was repeated twice, and the resulting approximately 30 mL organic fraction was reserved for diuron analysis by HPLC. The amount of diuron released after 27 days was about 5% (of the total encapsulated) for both samples. The amount released was less than expected compared with the dissolution results at pH=12. This could reflect an incomplete extraction of diuron from the aqueous phase during the process of shaking with octanol.

[4] = silica shell capsules loaded by post impregnation; after four hours; cited from earlier work

Sudan red
Release (in words) ([1]; Example 6, 50/50 v/v ethanol/water): slow release
Encapsulated dye released (Release into ethanol; Example 6, phenylsiloxane particles, within one hour): approximately 70%
Encapsulated dye released (Release into ethanol; Example 7, vinylsiloxane particles, by 100 minutes, both samples): > 90%

CC1=C(/C=C/C(C)=C/C=C/C(C)=C/CO)C(C)(C)CCC1 [retinol]
Encapsulated dopant released ([1]; Example 1, 50:50 (v/v) ethanol:water, after one day): Approximately 11%
Integrity after encapsulation ([2]; phenylsiloxane particles, absorption peak at 325 nm on release into ethanol): has not been damaged
Integrity after encapsulation ([2]; silica particles made by double emulsion process with TMOS, no peak at 325 nm): has been degraded

C=C(C)[C@H]1CC=C(C)CC1 [limonene]
Weight removed from the solid on leaching in ethanol (Release into ethanol; 15 ml limonene: 30 ml PTMS, HPLC): about 3%

CCCCNc1ccc(NCCCC)c2c1C(=O)c1ccccc1C2=O [Solvent blue 35]
Dye released (Release into ethanol; similar sample to Example 5, 100% ethanol, after several minutes): about 40%

CN(C)C(=O)Nc1ccc(Cl)c(Cl)c1 [diuron]
Amount released (of the total encapsulated) [3]: about 5%

C1=Cc2nc1c(-c1ccccc1)c1ccc([nH]1)c(-c1ccccc1)c1nc(c(-c3ccccc3)c3ccc([nH]3)c2-c2ccccc2)C=C1 [tetraphenyl porphyrin]
Porphyrin leached from the particles [4]: 60%
